Marks after values point to notes of the source that are not given here.
Tests used:
[1] = system: subcutaneous CXCR4^+ SW1417 CRC tumor; test: Induction of DNA double strand breaks and apoptosis in tumor tissue, SC SW1417 model; format: in vivo, mouse; details: for number of apoptotic figures in tumor tissue (Hoechst nuclear condensation or defragmentation): 24 h after injection; for number of DSBs foci in tumors (anti-gH2AX IHC): five hours after treatment
Method: (§1) The SC SW1417 mouse model was used to determine the capacity of the nanoconjugate to induce DNA damage and apoptosis in tumor tissue, as well as the kinetics of CXCR4 expression in the membrane of tumor cells after treatment, regarding the fraction of CXCR4 expressing tumor cells and their intensity, since CXCR4^+ are the target cells for the nanoconjugate. […] The mice had been treated with equimolecular dosages of T22-GFP-H6, free oligo-FdU or Buffer, in which also were determined the levels of CXCR4 expression in tumor tissue at the different time points.

[2] = system: CXCR4^+ SW1417 CRC metastases; test: Regression of established metastasis protocol, orthotopic CXCR4+ SW1417 CRC model; format: in vivo, Swiss nude mice; details: for LN foci, mean foci number per mouse / Lung foci, mean foci number per mouse: Regression protocol, 6 histology sections, mean + SE; for LN foci, mean foci number per mouse: 20 μg (or equimolecular) q3d x10 i.v.
Method: Swiss nude mice were anesthetized with ketamine and xylazine, exteriorizing their cecum by a laparotomy. 2×106 CXCR4^+ SW1417-luci CRC cells (expressing luciferase, to allow ex vivo bioluminescent identification of metastatic foci in affected organs at the end of therapy) were suspended in […] of modified Eagle's medium, and loaded into a sterile micropipette. The cell suspension was slowly injected, under a binocular lens, with an approximate 30° angle and its tip introduced 5 mm into the cecal wall. Afterward, a slight pressure was applied with a cotton stick at approximately 2 mm from the injection point in the direction of the pipette axis. The pipette was pulled out and the area around the injection cleaned with 3% iodine. After injection, the gut was returned to the abdominal cavity and closed with surgical staples.
The orthotopic and metastatic CRC model developed in Swiss nude mice was employed to perform experiments of metastasis regression. […] The experiment was finished when the first animal of the buffer-treated-group had to be euthanized. See below the studied parameters to evaluate the antimetastatic effect.
(§2) At necropsy, the number and size of visible metastases in the organs where dissemination is expected in colorectal cancer (lymph nodes, liver, lung and peritoneum) were recorded for each mouse in all compared groups. Also the number of metastatic foci that emitted bioluminiscence (derived from the SW1417-luci CRC cells) were counted ex vivo in the target organs for metastasis, using the IVIS® 200-Spectrum (Perkin-Elmer). Samples for histopathological and immunohistochemical analyses were collected and processed. Two independent observers analyzed H&E stained samples to count the number and measure the size of all observed metastatic foci in three (metastasis prevention experiment) or six (regression of metastasis experiment) sections of each organ in each mouse. The images were taken and the measurements were performed with an Olympus microscope with the CellD Olympus software (v3.3). […] The obtained results were used to study a possible correlation between CXCR4^+ CCF and antimetastatic effect at the different sites.
(§3) In order to analyze differences between control and experimental groups of affected mice in metastatic rates at the different organs, Fisher's exact test was used. The Mann-Whitney test was used to compare number and size of metastatic foci in the affected organs among groups. All quantitative values were expressed as mean±SE and the statistical tests were performed using SPSS version 11.0 (IBM, New York, USA). Differences among groups was considered significant at a p<0.05.

[3] = system: CXCR4^+ cancer cells in SC SW1417 CRC tumor; test: CXCR4+ cancer cell fraction in tumor tissue along time after single dose (anti-CXCR4 IHC); format: in vivo, mouse; details: 24 h, 48 h, 72 h after equimolecular dose
Method: as §1

[4] = system: CXCR4^+ SW1417 CRC metastases; test: Prevention of metastasis protocol, SC+ORT CXCR4+ SW1417 CRC model; format: in vivo, NOD/SCID mice
Method: Thus, a SC+ORT model, was produced: when SC tumors reached a volume of 700 mm3, mice were sacrificed by cervical dislocation and tumours were excised, discarding the necrotic areas. Three hundred mg of viable tumour tissue was then cut into pieces and disaggregated in a mix of 0.05% trypsin (Invitrogen) and 100 mg/ml DNase (Sigma-Aldrich). The mix was pipetted 30 times, using a 10 ml pipette, and incubated for 10 minutes at 37° C. with shaking. It was then re-pipetted 30 times, using 10 ml, 3 ml and 1 ml pipettes, and re-incubated for 5 minutes at 37° C. with shaking. This re-pipetting step was then repeated. The obtained SW1417 single-cell suspension was filtered through a cell strainer and centrifuged at 1,000 g for 10 minutes before counting the cells. Then 2×10^6 cells, […] resuspended in 50 μl of media, were microinjected in the cecum of each mouse, following the method described above.
The SC+ORT metastatic CRC model developed in NOD/SCID mice was used to evaluate the capacity of the nanoconjugate for metastasis prevention.
as §2, §3

CXCR4^+ SW1417 CRC cells = test: Internalization in CXCR4+ SW1417 CRC cells (flow cytometry, AMD3100 competition); format: cell-based, human; details: antagonist 1:10 protein:antagonist molar ratio, 1 h before nanoconjugate
Method: CXCR4+ SW1417-luc CRC cells were cultured in modified Eagle's medium (Gibco, Rockville, MD) supplemented with 10% fetal calf serum (Gibco), and incubated at 37° C. and 5% CO2 in a humidified atmosphere. […] Fluorescence emission was measured with a D detector (530/30 nm band pass filter). To assess specificity for CXCR4 receptor-mediated internalization, competition studies were performed incubating CRC SW1417 cells with the CXCR4 antagonist AMD3100 (Sigma Aldrich) in a 1:10 (protein:antagonist) molar ratio for 1 h before exposure to the nanoconjugate at […] for an additional hour.
The cells were washed in phosphate-buffered saline (Sigma-Aldrich). Live cells were recorded by TCS-SP5 confocal laser scanning microscopy (Leica Microsystems, Heidelberg, Germany) using a Plan Apo 63×/1.4 (oil HC×PL APO lambda blue) objective as described. To determine particle localization inside the cell, stacks of 10-20 sections forevery 0.5 μm of cell thickness were collected and three-dimensional models were generated using Imaris version 6.1.0 software (Bitplane, Zurich, Switzerland).

[5] = system: CXCR4^+ HeLa human cervical carcinoma cell line; test: Internalization in CXCR4+ HeLa cells (flow cytometry, AMD3100 competition); format: cell-based; details: pre-treatment, 1:10 molar ratio
Method: To assess specificity for CXCR4 receptor mediated internalization, competition studies incubating CXCR4^+ HeLa cells with the CXCR4 antagonist AMD3100 (octahydrochloride hydrate, Sigma-Aldrich) were performed in a 1:10 (Protein:antagonist) molar ratio for 1 h before exposure to the nanoconjugate, as previously described for the T22-GFP-H6.
Nuclei were labeled with Hoechst 33342 (Life Technologies) and plasma membranes CellMask™ Deep Red (Life Technologies).

[6] = system: subcutaneous CXCR4^+ SW1417 CRC tumor; test: Tumor uptake and tumor cell internalization in subcutaneous CXCR4+ SW1417 CRC model; details: fluorescence emission
Method: (§4) SC model was used to assess tumor uptake and nanoconjugate internalization and in vivo competition studies using co-administration of the CXCR4 antagonist AMD3100.
(§5) Two hours, 5 h and 24 h after the administration, the mouse was euthanized to resect the tumor and register ex vivo the intensity of the green fluorescence emitted by the nanoconjugated that biodistributed to tumor tissue using the IVIS® 200-Spectrum (Perkin Elmer, MA, USA). Following, tumor tissue samples were taken, processed and performed immunohistochemistry (IHC) to determine the presence or absence of the corresponding nanoconjugate into cytosol of tumor cells using an anti-GFP antibody (1:300; Santa-Cruz Biotechnology, CA, USA). […] Apoptosis was assessed determining nuclear condensation with Hoechst staining of tumor tissue sections and counting the number of condensed or defragmented nuclei in five high-power magnification fields in different sections for each tumor using the Olympus DP73 digital camera and the CellD Imaging 3.3 programme (Olympus, Tokyo, Japan).

[7] = Nanoparticle size by dynamic light scattering; format: physicochemical; details: Example 2; unit not given
Method: The volume and size distribution of the nanoparticles was determined by dynamic light scattering at 633 nm (Zetasizer Nano ZS, Malvern Instruments Limited, Malvern, Worcestershire, UK). Nanoconjugate size was also measured using purified samples, diluted to 0.2 mg/mL and contrasted by evaporation of 1 nm platinum layer in carbon-coated grids, before being visualized in a Hitachi H-7000 transmission electron microscope (TEM), as described33.

[8] = system: subcutaneous CXCR4^+ SW1417 CRC tumor; details: mouse, in vivo, iv
Method: as §4, §5

[9] = Prevention protocol, 3 histology sections, mean + SE

With “5′-(FdU)5-3′ [free oligo-FdU, reference compound]” the “number of apoptotic figures in tumor tissue (Hoechst nuclear condensation or defragmentation)” value [1] was 7.1±0.6, the “number of DSBs foci in tumors (anti-gH2AX IHC)” value [1] was 13.4±0.7 and the “LN foci, mean foci number per mouse” value [2] was 0.8 ± 0.2. The “Lung foci, mean foci number per mouse” value [2] was 2.0 ± 0.7 ^j,m, the “primary tumor growth by in vivo bioluminescence emission” value ([2]; regression experiment, compared to buffer treated animals) was “significantly inhibited tumor growth” and the “CXCR4+ CCF in tumor tissue along time” value [3] was “remained similar to its basal level along time”. The “LN foci, mean foci number per mouse” value ([4]; Prevention protocol, 20 μg (or equimolecular) q3d x12 i.v., 3 histology sections, mean + SE) was 3.1 ± 0.4, the “Liver foci, mean foci number per mouse” value [4, 9] was 1.0 ± 0.3 ^c and the “Lung foci, mean foci number per mouse” value [4, 9] was 4.5 ± 1.6 ^e. The “Peritoneal foci, mean foci number per mouse” value [4, 9] was 2.8 ± 1.0 ^g, the “total or mean foci number at any site (LN, liver, lung, peritoneum)” value ([4]; compared to buffer-treated animals) was “did not reduce” and the “Metastasis Liver [%]” value ([4]; end of prevention experiment) was “[55]^a %”. The “Metastasis Liver, affected/total mice” value ([4]; end of prevention experiment) was 6/11, the “Metastasis Lung [%]” value ([4]; end of prevention experiment) was “[55]^c %” and the “Metastasis Lung, affected/total mice” value ([4]; end of prevention experiment) was 6/11. For the same molecule, the “Metastasis Lymph nodes [%]” value ([4]; end of prevention experiment) was “[100] %”, the “Metastasis Lymph nodes, affected/total mice” value ([4]; end of prevention experiment) was 11/11 and the “Metastasis Peritoneal [%]” value ([4]; end of prevention experiment) was “[45] %”. For the same molecule, the “Metastasis Peritoneal, affected/total mice” value ([4]; end of prevention experiment) was 5/11, the “remaining CXCR4^+ CCF in liver, lung and peritoneal metastatic tissue (anti-CXCR4 IHC)” value ([4]; end of prevention experiment) was “does not reduce” and the “Metastasis Size, Liver” value ([4]; mean foci size) was 9.6 μm^2 × 10^−3. The “Metastasis Size, Lung” value ([4]; mean foci size) was 17.9 μm^2 × 10^−3, the “Metastasis Size, Lymph nodes” value ([4]; mean foci size) was 77.0 μm^2 × 10^−3 and the “Metastasis Size, Peritoneal” value ([4]; mean foci size) was 304.8 μm^2 × 10^−3. For the same molecule, the “Primary tumor Positive/#Mice” value ([4]; mice bearing a primary tumor out of total mice per group) was 11/11, the “Primary tumor [%]” value ([4]; percent of mice bearing a primary tumor) was “[100] %” and the “primary tumor growth by in vivo bioluminescence emission” value ([4]; prevention experiment, compared to buffer-treated mice) was “no significant inhibition”.
In the case of c1cc(CN2CCCNCCNCCCNCC2)ccc1CN1CCCNCCNCCCNCC1 [AMD3100, reference compound], the “block of T22-GFP-H6-FdU internalization by CXCR4 antagonist” value (CXCR4^+ SW1417 CRC cells) is reported as “completely blocked”, the “block of T22-GFP-H6-FdU internalization in HeLa cells by CXCR4 antagonist pre-treatment” value [5] is reported as “Complete internalization block” and the “block of T22-GFP-H6-FdU tumor uptake by CXCR4 antagonist given prior to the nanoconjugate” value [6] is reported as “completely blocked”.
For “T22-GFP-H6: targeting vector: fusion protein nanoparticle of peptide T22 (CXCR4 ligand), green fluorescent protein and a Histidine tail”, the “number of apoptotic figures in tumor tissue (Hoechst nuclear condensation or defragmentation)” value [1] was 3.0±0.3, the “number of DSBs foci in tumors (anti-gH2AX IHC)” value [1] was “undetectable” and the “LN foci, mean foci number per mouse” value [2] was 1.1 ± 0.2 ^i. The “Lung foci, mean foci number per mouse” value [2] was 1.7 ± 0.6 ^l, the “size determined by dynamic light scattering” value [7] was 13.4+0.11 and the “internalization into CXCR4^+ tumor cell cytosol by anti-GFP immunohistochemistry” value [8] was “internalized”.
